Data as given in ChEMBL document CHEMBL4038272, “Synthesis and biological evaluation of novel podophyllotoxin-NSAIDs conjugates as multifunctional anti-MDR agents against resistant human hepatocellular carcinoma Bel-7402/5-FU cells” (Eur J Med Chem, 2017).
Calls of active or inactive are those of the source. The calls are words filed in the database; no cut-off is given here.

Legend:
[1] = tested on: Bel7402/5-FU; experiment: Induction of apoptosis in human Bel7402/5-FU cells assessed as reduction in cell number at 0.05 uM after 24 hrs by Hoechst 33342 staining based fluorescent microscopic method; type: functional
[2] = tested on: Bel7402/5-FU; experiment: Effect on COX1 expression in human Bel7402/5-FU cells assessed as ratio of COX1 to beta-actin level at 0.05 uM after 48 hrs by Western blot analysis (reference value: 0.48); type: functional
[3] = tested on: Bel7402/5-FU; experiment: Effect on COX2 expression in human Bel7402/5-FU cells assessed as ratio of COX2 to beta-actin level at 0.05 uM after 48 hrs by Western blot analysis (reference value: 0.36); type: functional
[4] = target: Mitogen-activated protein kinase; ERK1/ERK2 (Homo sapiens) (UniProt P27361+P28482); experiment: Effect on ERK1/2 phosphorylation in human Bel7402/5-FU cells assessed as ratio of phosphorylated ERK1/2 to beta-actin level at 0.05 uM after 48 hrs by Western blot analysis (reference value: 0.59); type: cell-based
Sequence of Mitogen-activated protein kinase; ERK1/ERK2 (Homo sapiens) (P27361 whole entry, looked up): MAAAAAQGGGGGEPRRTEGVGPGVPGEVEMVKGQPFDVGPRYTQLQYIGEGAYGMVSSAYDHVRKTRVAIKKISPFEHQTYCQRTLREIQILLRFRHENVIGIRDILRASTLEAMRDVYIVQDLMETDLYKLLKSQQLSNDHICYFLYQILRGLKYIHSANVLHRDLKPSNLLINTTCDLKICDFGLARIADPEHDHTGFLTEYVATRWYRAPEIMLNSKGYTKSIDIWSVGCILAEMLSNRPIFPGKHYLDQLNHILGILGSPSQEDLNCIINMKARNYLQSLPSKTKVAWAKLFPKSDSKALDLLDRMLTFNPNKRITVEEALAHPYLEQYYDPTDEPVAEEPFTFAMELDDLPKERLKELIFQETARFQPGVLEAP
Sequence of Mitogen-activated protein kinase; ERK1/ERK2 (Homo sapiens) (P28482 whole entry, looked up): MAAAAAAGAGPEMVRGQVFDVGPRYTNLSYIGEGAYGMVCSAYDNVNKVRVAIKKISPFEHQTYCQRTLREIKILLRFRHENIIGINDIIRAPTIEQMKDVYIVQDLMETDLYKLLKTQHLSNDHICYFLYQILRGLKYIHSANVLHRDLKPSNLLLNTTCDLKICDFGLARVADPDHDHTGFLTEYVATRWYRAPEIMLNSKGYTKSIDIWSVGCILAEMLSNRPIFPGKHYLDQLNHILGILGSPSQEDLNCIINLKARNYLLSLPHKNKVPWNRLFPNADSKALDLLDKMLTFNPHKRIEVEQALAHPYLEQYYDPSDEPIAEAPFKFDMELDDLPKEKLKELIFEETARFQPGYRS

[5] = tested on: Bel7402/5-FU; experiment: Induction of apoptosis in human Bel7402/5-FU cells assessed as ratio of cleaved caspase-3 to beta-actin level at 0.05 uM after 48 hrs by Western blot analysis (reference value: 0.19); type: functional
[6] = tested on: Bel7402/5-FU; experiment: Antimigratory activity in human Bel7402/5-FU cells at 0.05 uM after 24 hrs by wound healing assay; type: functional, cell-based
[7] = tested on: Bel7402/5-FU; experiment: Cell cycle arrest in human Bel7402/5-FU cells assessed as accumulation at S phase at 0.05 uM after 48 hrs by propidium iodide staining based flow cytometry (reference value: 12.62%); type: functional
[8] = tested on: Bel7402/5-FU; experiment: Effect on cyclinB1 expression in human Bel7402/5-FU cells assessed as ratio of cyclinB1 to beta-actin level at 0.05 uM after 48 hrs by Western blot analysis (reference value: 0.53); type: functional
[9] = tested on: Bel7402/5-FU; experiment: Induction of apoptosis in human Bel7402/5-FU cells assessed as morphological changes at 0.05 uM after 24 hrs by Hoechst 33342 staining based fluorescent microscopic method; type: functional, cell-based
[10] = tested on: L02; experiment: Antiproliferative activity against human LO2 cells after 72 hrs by CCK-8 assay; type: cell-based; details: L02, 72 h
[11] = tested on: Bel7402/5-FU; experiment: Induction of microtubule disruption in human Bel7402/5-FU cells at 0.05 uM after 24 to 48 hrs by DAPI staining based immunofluorescence microscopic method; type: functional, cell-based
[12] = tested on: Bel-7402; experiment: Antiproliferative activity against human Bel7402 cells after 72 hrs by CCK-8 assay; type: functional, cell-based; details: Bel-7402, 72 h
[13] = tested on: Bel7402/5-FU; experiment: Induction of apoptosis in human Bel7402/5-FU cells assessed as live cells at 0.05 uM after 48 hrs by Annexin V-APC/7-AAD staining based flow cytometry (reference value: 91.08%); type: functional
[14] = tested on: Bel7402/5-FU; experiment: Effect on VEGFR2 expression in human Bel7402/5-FU cells assessed as ratio of VEGFR2 to beta-actin level at 0.05 uM after 48 hrs by Western blot analysis (reference value: 0.25); type: functional
[15] = tested on: Bel7402/5-FU; experiment: Antiproliferative activity against human Bel7402/5-FU cells after 72 hrs by CCK-8 assay; type: functional, cell-based
[16] = tested on: Bel7402/5-FU; experiment: Cell cycle arrest in human Bel7402/5-FU cells assessed as accumulation at G2 phase at 0.05 uM after 48 hrs by propidium iodide staining based flow cytometry (reference value: 35.16%); type: functional
[17] = tested on: Bel7402/5-FU; experiment: Induction of apoptosis in human Bel7402/5-FU cells assessed as ratio of cleaved caspase-8 to beta-actin level at 0.05 uM after 48 hrs by Western blot analysis (reference value: 0.17); type: functional
[18] = tested on: Bel7402/5-FU; experiment: Effect on E-cadherin expression in human Bel7402/5-FU cells assessed as ratio of E-cadherin to beta-actin level at 0.05 uM after 48 hrs by Western blot analysis (reference value: 0.2); type: functional
[19] = tested on: Bel7402/5-FU; experiment: Effect on cyclinA expression in human Bel7402/5-FU cells assessed as ratio of cyclinA to beta-actin level at 0.05 uM after 48 hrs by Western blot analysis (reference value: 0.39); type: functional
[20] = tested on: Bel7402/5-FU; experiment: Cell cycle arrest in human Bel7402/5-FU cells assessed as accumulation at G1 phase at 0.05 uM after 48 hrs by propidium iodide staining based flow cytometry (reference value: 52.21%); type: functional
[21] = tested on: Bel7402/5-FU; experiment: Induction of apoptosis in human Bel7402/5-FU cells assessed as necrotic cells at 0.05 uM after 48 hrs by Annexin V-APC/7-AAD staining based flow cytometry (reference value: 0.58%); type: functional
[22] = tested on: Bel7402/5-FU; experiment: Effect on P-gp expression in human Bel7402/5-FU cells assessed as ratio of P-gp to beta-actin level at 0.05 uM after 48 hrs by Western blot analysis (reference value: 0.59); type: functional
[23] = tested on: Bel7402/5-FU; experiment: Effect on CDK1 expression in human Bel7402/5-FU cells assessed as ratio of CDK1 to beta-actin level at 0.05 uM after 48 hrs by Western blot analysis (reference value: 0.33); type: functional
[24] = target: RAC-alpha serine/threonine-protein kinase (Homo sapiens) (UniProt P31749); experiment: Effect on AKT phosphorylation in human Bel7402/5-FU cells assessed as ratio of phosphorylated AKT to beta-actin level at 0.05 uM after 48 hrs by Western blot analysis (reference value: 0.39); type: cell-based
Sequence of RAC-alpha serine/threonine-protein kinase (Homo sapiens) (P31749 whole entry): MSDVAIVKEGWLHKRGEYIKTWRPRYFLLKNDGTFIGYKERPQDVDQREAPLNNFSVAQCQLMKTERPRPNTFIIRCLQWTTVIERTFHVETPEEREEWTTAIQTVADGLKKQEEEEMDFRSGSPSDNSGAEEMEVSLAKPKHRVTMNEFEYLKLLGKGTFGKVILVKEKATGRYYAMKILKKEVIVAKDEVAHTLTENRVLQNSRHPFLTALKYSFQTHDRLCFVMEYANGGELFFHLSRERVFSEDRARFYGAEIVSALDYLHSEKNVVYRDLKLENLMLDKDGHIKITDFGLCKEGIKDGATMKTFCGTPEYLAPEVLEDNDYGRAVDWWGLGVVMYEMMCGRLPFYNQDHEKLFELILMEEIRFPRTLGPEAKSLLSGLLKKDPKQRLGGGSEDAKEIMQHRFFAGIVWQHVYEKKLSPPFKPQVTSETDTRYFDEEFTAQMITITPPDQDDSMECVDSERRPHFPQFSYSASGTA

[25] = tested on: Bel7402/5-FU; experiment: Induction of apoptosis in human Bel7402/5-FU cells assessed as early apoptotic cells at 0.05 uM after 48 hrs by Annexin V-APC/7-AAD staining based flow cytometry (reference value: 5.24%); type: functional
[26] = tested on: Bel7402/5-FU; experiment: Reduction in microtubule density in human Bel7402/5-FU cells at 0.05 uM after 24 to 48 hrs by DAPI staining based immunofluorescence microscopic method; type: functional, cell-based
[27] = tested on: Bel7402/5-FU; experiment: Induction of apoptosis in human Bel7402/5-FU cells assessed as condensed nuclei at 0.05 uM after 24 hrs by Hoechst 33342 staining based fluorescent microscopic method; type: functional, cell-based
[28] = tested on: Bel7402/5-FU; experiment: Effect on MMP2 expression in human Bel7402/5-FU cells assessed as ratio of MMP2 to beta-actin level at 0.05 uM after 48 hrs by Western blot analysis (reference value: 0.3); type: functional
[29] = tested on: Bel7402/5-FU; experiment: Effect on CDK2 expression in human Bel7402/5-FU cells assessed as ratio of CDK2 to beta-actin level at 0.05 uM after 48 hrs by Western blot analysis (reference value: 0.43); type: functional
[30] = tested on: Bel7402/5-FU; experiment: Induction of apoptosis in human Bel7402/5-FU cells at 0.05 uM after 24 hrs by Hoechst 33342 staining based fluorescent microscopic method; type: functional, cell-based
[31] = tested on: Bel7402/5-FU; experiment: Induction of apoptosis in human Bel7402/5-FU cells assessed as late apoptotic cells at 0.05 uM after 48 hrs by Annexin V-APC/7-AAD staining based flow cytometry (reference value: 3%); type: functional
[32] = target: Signal transducer and activator of transcription 3 (Homo sapiens) (UniProt P40763); experiment: Effect on STAT3 phosphorylation in human Bel7402/5-FU cells assessed as ratio of phosphorylated STAT3 to beta-actin level at 0.05 uM after 48 hrs by Western blot analysis (reference value: 0.3); type: cell-based
Sequence of Signal transducer and activator of transcription 3 (Homo sapiens) (P40763 whole entry): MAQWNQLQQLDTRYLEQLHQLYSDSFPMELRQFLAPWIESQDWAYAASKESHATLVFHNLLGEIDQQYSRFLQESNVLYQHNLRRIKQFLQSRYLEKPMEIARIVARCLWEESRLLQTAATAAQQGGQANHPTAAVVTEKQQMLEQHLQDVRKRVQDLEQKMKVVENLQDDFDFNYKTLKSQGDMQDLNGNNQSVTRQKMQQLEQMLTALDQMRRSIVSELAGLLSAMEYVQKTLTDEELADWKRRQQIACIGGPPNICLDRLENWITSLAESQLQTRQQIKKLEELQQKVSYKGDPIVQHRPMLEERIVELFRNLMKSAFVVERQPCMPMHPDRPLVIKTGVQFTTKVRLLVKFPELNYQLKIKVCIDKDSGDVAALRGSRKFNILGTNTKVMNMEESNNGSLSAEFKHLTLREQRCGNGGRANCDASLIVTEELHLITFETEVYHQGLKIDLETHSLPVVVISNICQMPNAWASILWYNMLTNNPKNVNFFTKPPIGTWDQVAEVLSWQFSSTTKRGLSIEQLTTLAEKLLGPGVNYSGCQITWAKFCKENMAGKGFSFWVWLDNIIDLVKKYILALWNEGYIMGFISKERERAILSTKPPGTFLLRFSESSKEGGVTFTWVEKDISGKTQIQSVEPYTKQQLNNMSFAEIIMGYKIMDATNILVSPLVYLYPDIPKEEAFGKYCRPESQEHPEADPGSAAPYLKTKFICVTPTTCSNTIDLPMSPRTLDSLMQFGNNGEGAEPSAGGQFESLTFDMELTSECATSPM

[33] = tested on: Bel7402/5-FU; experiment: Effect on MRP1 expression in human Bel7402/5-FU cells assessed as ratio of MRP1 to beta-actin level at 0.05 uM after 48 hrs by Western blot analysis (reference value: 0.58); type: functional
[34] = tested on: Bel7402/5-FU; experiment: Induction of apoptosis in human Bel7402/5-FU cells assessed as ratio of cleaved PARP to beta-actin level at 0.05 uM after 48 hrs by Western blot analysis (reference value: 0.2); type: functional
[35] = tested on: Bel7402/5-FU; experiment: Induction of apoptosis in human Bel7402/5-FU cells assessed as ratio of cleaved caspase-9 to beta-actin level at 0.05 uM after 48 hrs by Western blot analysis (reference value: 0.17); type: functional
[36] = Resistant factor, ratio of IC50 for human Bel7402/5-FU cells to IC50 for human Bel7402 cells; type: functional
[37] = tested on: Bel7402/5-FU; experiment: Effect on iNOS expression in human Bel7402/5-FU cells assessed as ratio of iNOS to beta-actin level at 0.05 uM after 48 hrs by Western blot analysis (reference value: 0.13); type: functional

COc1cc([C@@H]2c3cc4c(cc3[C@H](O)[C@H]3COC(=O)[C@H]23)OCO4)cc(OC)c1OC [PODOFILOX]
Activity [1]: Active
Ratio [2]: 0.43
Ratio [3]: 0.39
Ratio [4]: 0.38
Ratio [5]: 0.27
Activity [6]: Active
Activity [7]: 9.1%
Ratio [8]: 0.41
Activity [9]: Active
IC50 [10]: 0.022 µM
Activity [11]: Active
IC50 [12]: 0.052 µM
Activity [13]: 63.7%
Ratio [14]: 0.22
IC50 [15]: 0.044 µM
Activity [16]: 73.62%
Ratio [17]: 0.26
Ratio [18]: 0.28
Ratio [19]: 0.27
Activity [20]: 17.28%
Activity [21]: 4.65%
Ratio [22]: 0.49
Ratio [23]: 0.33
Ratio [24]: 0.35
Activity [25]: 8.48%
Activity [26]: Active
Activity [27]: Active
Ratio [28]: 0.13
Ratio [29]: 0.29
Activity [30]: Active
Activity [31]: 23.17%
Ratio [32]: 0.41
Ratio [33]: 0.52
Ratio [34]: 0.38
Ratio [35]: 0.26
Ratio IC50 [36]: 0.84
Ratio [37]: 0.18
